Assay results from patent US10745382B2 (BRISTOL-MYERS SQUIBB COMPANY, priority 2015, dated 2020).
Where two headings read alike, the source gives them in different places.

Molecular target: T1, PD-1/PD-L1 (Homo sapiens, UniProt Q9NZQ7)
T1 construct: made in house; host or cells: HEK293T
Assay: PD-1/PD-L1 Homogenous Time-Resolved Fluorescence (HTRF) binding assay
Conditions: PD-L1-His 10 nM, PD-1-Ig 20 nM, read-out: Range or IC50
Procedure, shortened: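 dPBS + 0.1% BSA + 0.05% Tween-20 buffer; Eu-cryptate anti-Ig 1 nM final, APC anti-His 20 nM final; HTRF read. Counter-assays: PD-1-Ig/PD-L2-His 20 & 5 nM, CD80-His/PD-L1-Ig 100 & 10 nM.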

T1 sequence (Q9NZQ7 with tags, fused parts or gaps): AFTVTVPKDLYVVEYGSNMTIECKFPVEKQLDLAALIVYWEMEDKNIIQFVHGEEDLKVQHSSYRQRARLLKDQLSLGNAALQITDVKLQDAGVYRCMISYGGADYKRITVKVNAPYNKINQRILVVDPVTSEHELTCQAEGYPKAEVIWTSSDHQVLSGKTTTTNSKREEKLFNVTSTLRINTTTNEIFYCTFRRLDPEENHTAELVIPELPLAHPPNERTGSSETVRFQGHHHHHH

Compound	IC50 (value given as range class) [nM]	IC50 (numeric IC50) [nM]
Cc1c(COc2cc(OCc3cncc(C#N)c3)c(CNC(C)(C)C)cc2Cl)cccc1-c1cccc(OCCCN2CC[C@@H](O)C2)c1C [Example 2326, (R)-5-((2-((tert-butylamino)methyl)-4-chloro-5-((3′-(3-(3-hydroxypyrrolidin-1-yl)propoxy)-2,2′-dimethyl-[1,1′-biphenyl]-3-yl)methoxy)phenoxy)methyl)nicotinonitrile]	0.21 to 10	
COc1cc(OCc2cccc(-c3cccc(OCCCN4CC[C@@H](O)C4)c3C)c2C)c(Cl)cc1CN1CCCC[C@H]1C(=O)O [Example 3036, (2S)-1-(5-chloro-4-((3′-(3-((R)-3-hydroxypyrrolidin-1-yl)propoxy)-2,2′-dimethyl-[1,1′-biphenyl]-3-yl)methoxy)-2-methoxybenzyl)piperidine-2-carboxylic Acid]	0.21 to 10	
Cc1c(COc2cc(OCc3cncc(C#N)c3)c(CN3C[C@@H](O)C[C@H]3C(=O)O)cc2Cl)cccc1-c1cccc(C(=O)N2CCOCC2)c1C [Example 4051, (2S,4S)-1-(5-chloro-2-((5-cyanopyridin-3-yl)methoxy)-4-((2,2′-dimethyl-3′-(morpholine-4-carbonyl)-[1,1′-biphenyl]-3-yl)methoxy)benzyl)-4-hydroxypyrrolidine-2-carboxylic Acid]	10 to 100	
Cc1c(COc2cc(OCc3cncc(C#N)c3)c(C=O)cc2Cl)cccc1-c1cccc(OCCCN2CC[C@@H](O)C2)c1Cl [Example 1509, (R)-5-((4-chloro-5-((2′-chloro-3′-(3-(3-hydroxypyrrolidin-1-yl)propoxy)-2-methyl-[1,1′-biphenyl]-3-yl)methoxy)-2-formylphenoxy)methyl)nicotinonitrile]		12
Cc1c(COc2cc(OCc3cncc(C#N)c3)c(CN[C@H](CO)C(=O)O)cc2Cl)cccc1-c1cccc(OCCCN2CCC(O)(C(=O)O)CC2)c1 [Example 1033, (R)-1-(3-((3′-((4-(((1-carboxy-2-hydroxyethyl)amino)methyl)-2-chloro-5-((5-cyanopyridin-3-yl)methoxy)phenoxy)methyl)-2′-methyl-[1,1′-biphenyl]-3-yl)oxy)propyl)-4-hydroxypiperidine-4-carboxylic Acid]	0.21 to 10	

The remaining lines, values ahead:

IC50 (value given as range class) [nM]	IC50 (numeric IC50) [nM]	Compound
10 to 100		Cc1c(COc2cc(OCc3cncc(C#N)c3)c(CN3CCCC[C@H]3C(=O)O)cc2Cl)cccc1-c1cccc(OC/C=C/CN2CC[C@@H](O)C2)c1 [Example 1087, (S)-1-(5-chloro-2-((5-cyanopyridin-3-yl)methoxy)-4-((3′-(((E)-4-((R)-3-hydroxypyrrolidin-1-yl)but-2-en-1-yl)oxy)-2-methyl-[1,1′-biphenyl]-3-yl)methoxy)benzyl)piperidine-2-carboxylic Acid]
0.21 to 10		Cc1c(COc2cc(OCc3cncc(C#N)c3)c(CNC(CO)CO)c(C)c2Cl)cccc1-c1cccc(OCCCN2CC[C@@H](O)C2)c1C [Example 4102, (R)-5-((4-chloro-2-(((1,3-dihydroxypropan-2-yl)amino)methyl)-5-((3′-(3-(3-hydroxypyrrolidin-1-yl)propoxy)-2,2′-dimethyl-[1,1′-biphenyl]-3-yl)methoxy)-3-methylphenoxy)methyl)nicotinonitrile]
0.21 to 10		Cc1c(COc2cc(OCc3cncc(C#N)c3)c(CN[C@](C)(CO)C(=O)O)cc2Cl)cccc1-c1cccc(OCCCN2CCC(CO)(C(=O)O)C2)c1C (stereo partly shown) [Example 1051]
0.21 to 10		Cc1c(COc2cc(OCc3cncc(C#N)c3)c(CN3CCCC[C@H]3C(=O)O)cc2Cl)cccc1-c1cccc(OCCCN2[C@@H]3CC[C@H]2COC3)c1C [Example 3051, (S)-1-(4-((3′-(3-((1R,5S)-3-oxa-8-azabicyclo[3.2.1]octan-8-yl)propoxy)-2,2′-dimethyl-[1,1′-biphenyl]-3-yl)methoxy)-5-chloro-2-((5-cyanopyridin-3-yl)methoxy)benzyl)piperidine-2-carboxylic Acid]
0.21 to 10		Cc1c(COc2cc(OCc3cncc(C#N)c3)c(CN3CCCC[C@H]3C(=O)O)cc2Cl)cccc1-c1cccc(O[C@H](C)CCN2CC[C@@H](O)C2)c1Cl [Example 1523]
